Measurements taken from US6140362A, “Method for inhibiting the growth of mammalian cells” (Rohm and Haas Company, priority 1997, dated 2000).

Assays:
[1] = Biological activity of enantiomers; details: vs corresponding R enantiomers; test not stated
[2] = tested on: mouse lymphoma cell line L5178Y; assay: Growth inhibition of mouse lymphoma cells (L5178Y), 48 h; type: cell-based; details: 2 micromolar, 48 hours
[3] = tested on: Leukemia (SR); assay: Growth inhibition of human tumor cell lines: Leukemia (SR); type: cell-based; details: cell line A = Leukemia (SR), NCI testing
Procedure: (§1) Selected compounds were evaluated by the National Cancer Institute, Bethesda, Md. against 60 human tumor cell lines according to procedures described in Principles and Practices of Oncology, volume 3, issue number 10, pp. 1-12. Results of the testing against representative cell lines including the test compound number, and the GI50 values (μM) are set forth in Table 3. The GI50 value is the concentration required to inhibit cell growth by 50% as compared to untreated control cultures.

[4] = tested on: Nonsmall cell lung cancer (NCIH522); assay: Growth inhibition of human tumor cell lines: Nonsmall cell lung cancer (NCIH522); type: cell-based; details: NCI-H522, cell line B = Nonsmall cell lung cancer (NCIH522), NCI testing
Procedure: as §1

[5] = tested on: Small cell lung cancer (DMS 114); assay: Growth inhibition of human tumor cell lines: Small cell lung cancer (DMS 114); type: cell-based; details: cell line C = Small cell lung cancer (DMS 114), NCI testing
Procedure: as §1

[6] = tested on: Colon cancer (HCT116); assay: Growth inhibition of human tumor cell lines: Colon cancer (HCT116); type: cell-based; details: HCT-116, cell line D = Colon cancer (HCT116), NCI testing
Procedure: as §1

[7] = tested on: CNS cancer (SF539); assay: Growth inhibition of human tumor cell lines: CNS cancer (SF539); type: cell-based; details: SF-539, cell line E = CNS cancer (SF539), NCI testing
Procedure: as §1

[8] = tested on: Melanoma (SKMEL-2); assay: Growth inhibition of human tumor cell lines: Melanoma (SKMEL-2); type: cell-based; details: SK-MEL-2, cell line F = Melanoma (SKMEL-2), NCI testing
Procedure: as §1

[9] = tested on: Ovarian cancer (OVCAR8); assay: Growth inhibition of human tumor cell lines: Ovarian cancer (OVCAR8); type: cell-based; details: OVCAR-8, cell line G = Ovarian cancer (OVCAR8), NCI testing
Procedure: as §1

[10] = tested on: Renal cancer (CAKI1); assay: Growth inhibition of human tumor cell lines: Renal cancer (CAKI1); type: cell-based; details: CAKI-1, cell line H = Renal cancer (CAKI1), NCI testing
Procedure: as §1

[11] = tested on: mouse lymphoma cells; assay: Effect on mitosis in mouse lymphoma cells (visible chromosomes); type: cell-based; details: 2 μM, 7 hours
Procedure: Compound 14 was dissolved in DMSO at 0.8 mM and 75 microliters (μL) of this solution was added to tubes containing 30 ml of cell suspension at 1.2×10^5 /mL grown under the conditions described in Example 1. Cells in control tubes received 75 μL of DMSO alone. Tubes were gassed with 5% CO2, then incubated on a roller drum apparatus for 7 hours. The cells were treated with hypotonic medium (3-fold diluted growth medium) and fixed in acetic acid:methanol (1:3, v/v). After staining with aceto-orcein (method described in L. La Cour, Stain Technology, vol. 16, pp. 169-174 (1941)) the percentage of cells with visible chromosomes in treated and control cells was determined based on examination of 400 cells per sample.

[12] = tested on: tubulin; assay: Inhibition of microtubule assembly; type: biochemical, calf; details: 50 μM, preincubated 1 h at 37° C.
Procedure: (§2) Compounds were evaluated for their ability to inhibit tubulin assembly into microtubules by comparing the extent of cold-reversible assembly in the presence of each test compound with controls lacking the test compound. Tubulin was isolated from calf brain tissue by two cycles of assembly/disassembly as described by Vallee, R. B. in Methods in Enzymology, vol. 134, pp. 89-104. Assay mixtures contained 1 mg/ml of purified tubulin in 1 M sodium glutamate, pH 6.6, 1 millimolar (mM) MgCl2, and the test compound, which was added as a solution in DMSO. The final concentration of DMSO in each assay was 2% (v/v). Assay mixtures were preincubated at 37° C. for 1 h, then chilled on ice for 5 min. Microtubule assembly was initiated by addition of guanosine triphosphate (0.1 mM), and incubation at 37° C. Assembly was followed turbidimetrically at 350 nm for 20 minutes (min) using a temperature-controlled cell in a Cary 2200 spectrophotometer. Since microtubules undergo depolymerization at 0° C., assembly was confirmed by measuring the reduction in turbidity following incubation for 30 min at 0° C. The difference in absorbance before and after incubation for 30 min at 0° C. (ΔA350) represents the extent of microtubule assembly. Inhibition of assembly was calculated by subtracting the (ΔA350) values for treatments with test compounds from the (ΔA350) for controls without test compound, and expressing this difference as a percentage of the (ΔA350) value for the control. Results including test compound number, test compound concentration in micromoles per liter (μM) and percent inhibition are set forth in Table 11.

[13] = tested on: tubulin; assay: Effect of preincubation time with tubulin on inhibition of microtubule assembly; type: biochemical, calf; details: 16 μM
Procedure: as §2
Compound 14 (16 μM) was preincubated with tubulin under the conditions described in Example 4 for 0, 1, 2, 4 and 6 hours before initiating assembly by addition of guanosine triphosphate (0.1 mM), and incubation at 37° C. Inhibition of assembly was determined as in Example 4, and results including preincubation time and percent inhibition of assembly are set forth in Table 12.

Compound: CC[C@](C)(NC(=O)c1cc(Cl)c(C)c(Cl)c1)C(=O)CCl [S enantiomer of compound 32]
- Activity of S enantiomer relative to R enantiomer [1]: more active

Compound: CC[C@](C)(NC(=O)c1cc(Cl)cc(Cl)c1)C(=O)CCl [S enantiomer of compound 14]
- Activity of S enantiomer relative to R enantiomer [1]: more active

Compound: CCC(C)(NC(=O)c1cc(Cl)cc(Cl)c1)C(=O)CCl (centres unmarked) [Compound 14]
- inhibition at 2 µM [2]: 95%
- GI50 [3]: 830 nM
- GI50 [4]: 1980 nM
- GI50 [5]: 720 nM
- GI50 [6]: 2310 nM
- GI50 [7]: 2100 nM
- GI50 [8]: 1940 nM
- GI50 [9]: 2790 nM
- GI50 [10]: 3830 nM
- Normal mitotic figures in treated cells ([11]; vs control): lacking in the treated cells
- Number of cells with visible chromosomes ([11]; vs control): produced an increase in the number of cells with visible chromosomes
- Percentage of cells with visible chromosomes ([11]; control 3.9): 27.4 Percentage
- Percent inhibition of microtubule assembly [12]: 56.3%
- Percent inhibition of microtubule assembly ([13]; preincubation time 0 h): 0%
- Percent inhibition of microtubule assembly ([13]; preincubation time 1 h): 5.1%
- Percent inhibition of microtubule assembly ([13]; preincubation time 2 h): 22.6%
- Percent inhibition of microtubule assembly ([13]; preincubation time 4 h): 57.6%
- Percent inhibition of microtubule assembly ([13]; preincubation time 6 h): 87.2%
